Target: T1, Xyl (GH43 β-1,4-xylosidase from Geobacillus thermoleovorans IT-08) (Geobacillus thermoleovorans, UniProt Q2I2N4)
T1 construct: complete Xyl (511 residues; 61,533 Da); E. coli BL21 (DE3), plasmid pET-xyl; one molecule per asymmetric unit, probably dimer in solution (PISA)
T1 sequence (Q2I2N4 1-511): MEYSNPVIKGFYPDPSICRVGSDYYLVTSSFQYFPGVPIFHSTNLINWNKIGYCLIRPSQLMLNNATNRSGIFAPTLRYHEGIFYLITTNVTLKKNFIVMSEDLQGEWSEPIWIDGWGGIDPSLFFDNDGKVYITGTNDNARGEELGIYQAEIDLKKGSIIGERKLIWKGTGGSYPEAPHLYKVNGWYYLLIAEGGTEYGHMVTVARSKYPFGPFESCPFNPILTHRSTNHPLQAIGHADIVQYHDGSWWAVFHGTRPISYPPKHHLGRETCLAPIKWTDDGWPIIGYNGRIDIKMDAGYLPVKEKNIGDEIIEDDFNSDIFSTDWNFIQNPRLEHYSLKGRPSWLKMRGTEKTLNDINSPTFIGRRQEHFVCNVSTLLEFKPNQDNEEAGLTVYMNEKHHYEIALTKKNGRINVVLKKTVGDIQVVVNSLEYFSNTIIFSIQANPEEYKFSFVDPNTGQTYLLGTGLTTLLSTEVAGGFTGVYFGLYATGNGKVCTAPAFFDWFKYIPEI
Assay: X-ray crystal structure of soaked crystal
Format: binding
Details: 500 mM L-arabinose soak, 10 min, pH 7.0, 283 K; 2.10 Å; active site subsite -1; same site in ternary complex with D-xylose (5Z5I, 1.70 Å)

X-ray crystal structure of soaked crystal: arabinose was only found in subsite -1
SMILES: OC[C@@H]1O[C@H](O)[C@H](O)[C@H]1O [L-arabinose]
